According to the supplement of paper PMC10307832:

How the values were obtained:
Assay in all cases: relative viability (nuclei count vs DMSO), 5 days (fraction); higher = more cells survive
ABC-1 = test system: ABC-1
Procedure, shortened: (§1)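 Relative viability is defined as nuclei in treated wells over nuclei in vehicle wells. Duplicate plates were run and medians reported. Lung cancer cell lines in 1536-well plates were dosed by pin tool one day after seeding, with one drug or with a fixed anchor-drug dose plus five library-drug doses (not always all listed) in √10 steps, and nuclei were counted after 5 days.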

EMC-BAC-2 = test system: EMC-BAC-2
Procedure, shortened: as §1

NCI-H1648 = test system: NCI-H1648
Procedure, shortened: as §1

NCI-H1703 = test system: NCI-H1703
Procedure, shortened: as §1

A549 = test system: A549
Procedure, shortened: as §1

NCI-H2009 = test system: NCI-H2009
Procedure, shortened: as §1

IA-LM = test system: IA-LM
Procedure, shortened: as §1

NCI-H2228 = test system: NCI-H2228
Procedure, shortened: as §1

Calu-6 = test system: Calu-6
Procedure, shortened: as §1

EBC-1 = test system: EBC-1
Procedure, shortened: as §1

NCI-H1299 = test system: NCI-H1299
Procedure, shortened: as §1

Compound: CN1CCN(CCOc2cc(OC3CCOCC3)c3c(Nc4c(Cl)ccc5c4OCO5)ncnc3c2)CC1 [Saracatinib] + NC(=O)Nc1cc(-c2cccc(F)c2)sc1C(=O)N[C@H]1CCCNC1 [AZD7762] (partner 0.2 µM)
- relative viability (ABC-1; first compound 0.02 µM): 0.934
- relative viability (ABC-1; first compound 0.2 µM): 0.825
- relative viability (ABC-1; first compound 0.6325 µM): 0.908
- relative viability (ABC-1; first compound 2 µM): 0.695
- relative viability (EMC-BAC-2; first compound 0.02 µM): 1.12
- relative viability (EMC-BAC-2; first compound 0.2 µM): 1.09
- relative viability (EMC-BAC-2; first compound 0.6325 µM): 1.09
- relative viability (EMC-BAC-2; first compound 2 µM): 0.946
- relative viability (NCI-H1648; first compound 0.02 µM): 0.79
- relative viability (NCI-H1648; first compound 0.2 µM): 0.633
- relative viability (NCI-H1648; first compound 0.6325 µM): 0.865
- relative viability (NCI-H1648; first compound 2 µM): 0.379
- relative viability (NCI-H1703; first compound 0.02 µM): 0.136
- relative viability (NCI-H1703; first compound 0.6325 µM): 0.129
- relative viability (NCI-H1703; first compound 2 µM): 0.114

Compound: CN1CCN(CCOc2cc(OC3CCOCC3)c3c(Nc4c(Cl)ccc5c4OCO5)ncnc3c2)CC1 [Saracatinib] + Nc1ncn([C@H]2C[C@H](O)[C@@H](CO)O2)c(=O)n1 [Decitabine] (partner 2 µM)
- relative viability (A549; first compound 0.02 µM): 0.266
- relative viability (A549; first compound 0.6325 µM): 0.279
- relative viability (A549; first compound 2 µM): 0.237
- relative viability (ABC-1; first compound 0.02 µM): 1.01
- relative viability (ABC-1; first compound 0.2 µM): 1.04
- relative viability (ABC-1; first compound 0.6325 µM): 1.06
- relative viability (ABC-1; first compound 2 µM): 1.02
- relative viability (EMC-BAC-2; first compound 0.02 µM): 1.05
- relative viability (EMC-BAC-2; first compound 0.2 µM): 0.922
- relative viability (EMC-BAC-2; first compound 0.6325 µM): 1.02
- relative viability (EMC-BAC-2; first compound 2 µM): 0.91
- relative viability (NCI-H1648; first compound 0.02 µM): 0.534
- relative viability (NCI-H1648; first compound 0.2 µM): 0.367
- relative viability (NCI-H1648; first compound 0.6325 µM): 0.647
- relative viability (NCI-H1648; first compound 2 µM): 0.391
- relative viability (NCI-H2009; first compound 0.02 µM): 0.406
- relative viability (NCI-H2009; first compound 0.2 µM): 0.35
- relative viability (NCI-H2009; first compound 0.6325 µM): 0.35
- relative viability (NCI-H2009; first compound 2 µM): 0.322

Compound: CN1CCN(CCOc2cc(OC3CCOCC3)c3c(Nc4c(Cl)ccc5c4OCO5)ncnc3c2)CC1 [Saracatinib] + O=C(CCCCCCC(=O)Nc1ccccc1)NO [Vorinostat] (partner 1 µM)
- relative viability (ABC-1; first compound 0.02 µM): 0.905
- relative viability (ABC-1; first compound 0.2 µM): 0.99
- relative viability (ABC-1; first compound 0.6325 µM): 1.37
- relative viability (ABC-1; first compound 2 µM): 0.857
- relative viability (EMC-BAC-2; first compound 0.02 µM): 0.417
- relative viability (EMC-BAC-2; first compound 0.2 µM): 0.43
- relative viability (EMC-BAC-2; first compound 0.6325 µM): 0.417
- relative viability (EMC-BAC-2; first compound 2 µM): 0.291
- relative viability (IA-LM; first compound 0.02 µM): 1.01
- relative viability (IA-LM; first compound 0.6325 µM): 1.4
- relative viability (IA-LM; first compound 2 µM): 0.798
- relative viability (NCI-H1648; first compound 0.02 µM): 0.338
- relative viability (NCI-H1648; first compound 0.2 µM): 0.352
- relative viability (NCI-H1648; first compound 0.6325 µM): 0.782
- relative viability (NCI-H1648; first compound 2 µM): 0.433
- relative viability (NCI-H2009; first compound 0.02 µM): 0.754
- relative viability (NCI-H2009; first compound 0.2 µM): 0.653
- relative viability (NCI-H2009; first compound 0.6325 µM): 0.677
- relative viability (NCI-H2009; first compound 2 µM): 0.744
- relative viability (NCI-H2228; first compound 0.02 µM): 0.8
- relative viability (NCI-H2228; first compound 0.2 µM): 0.6
- relative viability (NCI-H2228; first compound 0.6325 µM): 0.611
- relative viability (NCI-H2228; first compound 2 µM): 0.633

Compound: CN1CCN(CCOc2cc(OC3CCOCC3)c3c(Nc4c(Cl)ccc5c4OCO5)ncnc3c2)CC1 [Saracatinib] + O=C(c1cc(Cc2n[nH]c(=O)c3ccccc23)ccc1F)N1CCN(C(=O)C2CC2)CC1 [Olaparib] (partner 8 µM)
- relative viability (A549; first compound 0.02 µM): 0.338
- relative viability (A549; first compound 0.2 µM): 0.174
- relative viability (A549; first compound 0.6325 µM): 0.341
- relative viability (A549; first compound 2 µM): 0.305
- relative viability (ABC-1; first compound 0.02 µM): 0.568
- relative viability (ABC-1; first compound 0.2 µM): 0.941
- relative viability (ABC-1; first compound 0.6325 µM): 0.706
- relative viability (ABC-1; first compound 2 µM): 0.751
- relative viability (Calu-6; first compound 0.02 µM): 0.53
- relative viability (Calu-6; first compound 0.2 µM): 0.51
- relative viability (Calu-6; first compound 0.6325 µM): 0.529
- relative viability (Calu-6; first compound 2 µM): 0.449
- relative viability (EBC-1; first compound 0.02 µM): 0.701
- relative viability (EBC-1; first compound 0.2 µM): 0.709
- relative viability (EBC-1; first compound 0.6325 µM): 0.729
- relative viability (EBC-1; first compound 2 µM): 0.734
- relative viability (EMC-BAC-2; first compound 0.02 µM): 0.489
- relative viability (EMC-BAC-2; first compound 0.2 µM): 0.418
- relative viability (EMC-BAC-2; first compound 0.6325 µM): 0.562
- relative viability (EMC-BAC-2; first compound 2 µM): 0.474
- relative viability (IA-LM; first compound 0.02 µM): 0.856
- relative viability (IA-LM; first compound 0.2 µM): 0.884
- relative viability (IA-LM; first compound 0.6325 µM): 1.06
- relative viability (IA-LM; first compound 2 µM): 0.76
- relative viability (NCI-H1299; first compound 0.02 µM): 0.923
- relative viability (NCI-H1299; first compound 0.2 µM): 0.952
- relative viability (NCI-H1299; first compound 0.6325 µM): 1.12
- relative viability (NCI-H1299; first compound 2 µM): 0.92
- relative viability (NCI-H1648; first compound 0.02 µM): 0.882
- relative viability (NCI-H1648; first compound 0.2 µM): 0.678
- relative viability (NCI-H1648; first compound 0.6325 µM): 1.75
- relative viability (NCI-H1648; first compound 2 µM): 0.417
- relative viability (NCI-H1703; first compound 0.02 µM): 0.425
- relative viability (NCI-H1703; first compound 0.2 µM): 0.393
- relative viability (NCI-H1703; first compound 0.6325 µM): 0.172
- relative viability (NCI-H1703; first compound 2 µM): 0.158
- relative viability (NCI-H2009; first compound 0.02 µM): 0.709
- relative viability (NCI-H2009; first compound 0.2 µM): 0.477
- relative viability (NCI-H2009; first compound 0.6325 µM): 0.688
- relative viability (NCI-H2009; first compound 2 µM): 0.724
- relative viability (NCI-H2228; first compound 0.02 µM): 0.966
- relative viability (NCI-H2228; first compound 0.2 µM): 0.617
- relative viability (NCI-H2228; first compound 0.6325 µM): 0.475
- relative viability (NCI-H2228; first compound 2 µM): 0.568
